Data reported in patent US20020037844A1, “SYNTHETIC PEPTIDE FOR TREATMENT OF AUTOIMMUNE ARTHRITIS” (priority 1993, published 2002).

How the values were obtained:
CII-primed T cells = experiment: T cell stimulation assay, γ-IFN production by CII-primed spleen and lymph node cells; type: cell-based, mice; conditions: CII-primed T cells cultured with 100 μm of antigen; FIG. 1
Protocol: Nowarck H., E. Hahn, R. Timple, 1976, “Requirements for T Cells in the Antibody Response of Mice to Calf Skin Collagen,” J. Immunol. 30:29. Each peptide was cultured with pooled spleen and lymph node cells from CII-immunized mice, and culture supernatant fluids were tested for the presence of γ-interferon as an indicator of T cell stimulation. T cell hybridomas were established by polyethylene glycol-induced fusion of lymph node cells with the T cell receptor α^−/β^−thymoma line, BW5147. White, M., M. Blackman, J. Bill, J. Kappler, P. Marrack, D. P. Gold, and W. Born, 1989, Two Better Cell Lines for Making Hybridomas Expressing Specific T Cell Receptors. J. Immunol. 143:1822. […]
(§1) T cell stimulation assays were performed in 96 well plates and the degree of stimulation was quantitated by measurements of γ-IFN production. […] Supernatants were collected from 72 to 120 hours later and either […] analyzed for γ-IFN production immediately or stored at −70° C. prior to analysis. Quantitative measurement of murine gamma interferon was done using a solid-phase enzyme-linked immunosorbent assay (Amgen Biologicals, Thousand Oaks, Calif.). […] The absorbance was measured at 405 nm with a spectrophotometer, and a standard curve was obtained by plotting the absorbance versus the corresponding concentration of the standards. Units of γ-interferon were calculated based on NIH standard number Gg02-901-533. […]

CII-primed, bulk T cells = experiment: Inhibition of antigen presentation to CII-primed bulk T cells (co-culture); type: cell-based, DBA/1 mice; conditions: analog co-cultured with CII 245-270 or native CII at various ratios; FIG. 2
Protocol: as §1, with “production. Myers, L. K., K. Terato, J. M. Seyer, J. M. Stuart, and A. H. Kang, 1992, Characterization of a Tolerogenic T Cell Epitope of Type II Collagen and its Relevance to Collagen-Induced Arthritis. J. Immunol. 149:1439. The disclosure of this article is incorporated by reference. Spleens and lymph nodes from mice immunized with CII 14 to 21 days prior were individually minced into single cell suspensions in Hank's Balanced Salt Solution (BSS) and washed 3 times.” for “production.”

[1] = target: T1, I-A^q on the surface of antigen presenting cells (Mus musculus, UniProt P04227+P06342); experiment: Competitive antigen presentation assay: pulsed APC presented to CII 245-270 specific T-cell hybridomas, IL-2 titer; type: cell-based, DBA/1 mice; conditions: conclusion from Table II
T1 construct: containing 4×10^5 syngenic spleen cells and 10^5 T-hybridoma cells; from tissue; host or cells: spleen cells syngeneic to DBA/1 mice (H-2q), used as antigen presenting cells
Protocol: Lymph node cells were obtained from DBA/1 mice immunized with α1(II)-CB11 emulsified with complete Freund's adjuvant and cultured in vitro with α1(II)-CB11 for five days, and in the presence of IL-2 for three days before fusion. Hybridoma cells reactive to CB11 [CII 245-270] and CII were cloned by limiting dilution to 0.3 cells/well. Antigen presentation experiments were performed in 96 well […] plates in a total volume of 0.3 ml containing 4×10^5 syngenic spleen cells and 10^5 T-hybridoma cells. For competitive inhibition assays, spleen cells were pulsed with various ratios of inhibitor to indicator peptide and washed several times prior to addition to the antigen presentation culture. Cell cultures were maintained at 37° C. in 5% humidified CO2 for 20 to 24 hours, after which seven 80 μl two-fold serial dilutions were made for determination of IL-2 titers. Four thousand HT-2 cells were added to each supernatant dilution, and after 16 to 20 hours HT-2 cell viability was evaluated by visual inspection. IL-2 titers were determined by the reciprocal of the highest two-fold serial dilution maintaining 90% viability of the HT-2 cells. Results are presented as units of IL-2 per ml of undiluted supernatant as described by Kapper et al. Kappler, J., J. White, D. Wegman, E. Mustain, and P. Marrack, 1982, Antigen Presentation by Ia^+B Cell Hybridomas to H-2 Restricted T Cell Hybridomas. Proc. Natl. Acad. Sci. USA 79:3604. The disclosure of this article is incorporated by reference.
The inability of some analog peptides to stimulate T cells likely occurs either because of disruption of peptide binding to the I-A^q molecule or the inability of the T cell receptor to recognize the peptide. In order to determine whether the analog peptides could bind to the class II molecule, competitive antigen presentation assays were performed. Antigen presenting cells (APC) were pulsed with various molar ratios of CII 245-270 and an analog peptide, and tested for their ability to stimulate CII 245-270 specific T cell hybridomas.

[2] = test system: collagen induced arthritis in neonatally tolerized mice; experiment: Neonatal tolerance: peptide given at birth, CII challenge at eight weeks, arthritis observed; type: in vivo; conditions: administered to neonatal mice prior to immunization with CII
Source text: To measure the incidence of arthritis in immunized mice, individuals examined and scored each of the forepaws and hind paws on a scale of 0-4 as described in Wooley, P. H., H. W. Luthra, J. M. Stuart and C. S. David. 1981. “Type 11 Collagen-induced Arthritis in Mice”. I. Major Histocompatibility Complex (I region) Linkage and Antibody Correlates. J. Exp. Med. 154:688. This article is incorporated herein by reference. There were two separate examiners, one of whom was unaware of the identity of the treatment groups. Each mouse was scored three times a week beginning three weeks post immunization and continuing through 8 weeks post immunization. The incidence of arthritis (number of animals with one or more arthritic limbs) was reported at 6 weeks post immunization, the time point at which the control group reached its peak of disease. The incidence of arthritis in various groups of mice was compared using Fisher's Exact Test. Student's T test was used to compare means of antibody responses to CII.
The foregoing data support the hypothesis that analog peptide CII 245-270[s260, 261, 263] competes for binding to I-A^q. […] Synthetic peptides were solubilized directly in phosphate buffered saline (PBS) at a concentration of 1 mg/ml. […]

[3] = test system: collagen induced arthritis (CIA) in DBA/1 mice; experiment: Collagen induced arthritis, simultaneous immunization with CII and peptide; type: in vivo; conditions: co-injected with native CII, molar ratio CII:peptide 1:480
antibodies to CII = experiment: Serum antibodies to CII by ELISA in neonatally treated mice; type: in vivo; conditions: 100 μg antigen in IFA intraperitoneally within 24 hours of birth; serum four weeks after immunization; mean titer
Protocol: (§2) Mice were bled at four weeks after immunization and the serum was tested for antibodies reactive with type II collagen by enzyme-linked immunoassay (ELISA) described in Stuart, J. M., A. S. Townes, and A. H. Kang. 1982. Nature and Specificity of the Immune Response to Collagen in Type II Collagen-Induced Arthritis in Mice, J. Clin. Invest. 69:673. The disclosure of this article is incorporated by reference An anti-CII serum standard was used in each assay. A standard curve was derived by computer analysis using a 4 parameter logistic curve. Results are reported as units of activity, derived by comparison of test sera with the curve derived from the anti-CII standard which was arbitrarily defined as having 50 units of activity. Sera from mice were tested individually, and means were calculated for each experimental group.
The foregoing data support the hypothesis that analog peptide CII 245-270[s260, 261, 263] competes for binding to I-A^q. […] Synthetic peptides were solubilized directly in phosphate buffered saline (PBS) at a concentration of 1 mg/ml. Neonatal mice were tolerized using a protocol described by Gammon et al.^21 in which antigen emulsified with incomplete Freund's adjuvant was injected intraperitoneally. Gammon, Dunn, Shastri, Oki, Wilbur, Sercarz, 1986, Neonatal T Cell Tolerance to Minimal Immunogenic Peptides is Caused by Clonal Inactivation, Nature (Lond) 319:413. […]

[4] = test system: collagen induced arthritis in neonatally tolerized mice; conditions: Myers et al. 1989, J. Exp. Med. 170:1999; cited from earlier work
[5] = test system: antibodies reactive with type II collagen; experiment: Serum antibodies to CII by ELISA in co-immunized mice; type: in vivo, DBA/1 mice; conditions: molar ratio CII:peptide 1:480; serum four weeks after immunization; mean
Protocol: as §2
In order to assess the effects of co-immunizing mice with both CII 245-270[s260, 261, 263] and CII, the mean antibody titers to native CII were measured for each immunization group in Table III, four weeks after immunization (Table IV).

Question: With “CII 245-270 [s266, 267, 269]: analog of CII 245-270 with D at 266, T at 267, A at 269 (type I collagen based substitutions) (PTGPLGPKGQTGELGIAGFKGDTGAK)” as the substance, how does the “T cell stimulation (γ-interferon) compared to the wild type peptide CII 245-270” value (CII-primed T cells) read?
Answer: did not respond

Question: What about the “T cell responses to CII 245-270 and CII” value (CII-primed, bulk T cells) of the same substance?
Answer: no significant effect

Question: What about the “Binding to I-A^q / competition for presentation of the wild type peptide to T-cell hybridomas” value [1] of the same substance?
Answer: did not compete

Question: What does the source list for “Pro - Thr - Gly - Pro - Leu - Gly - Pro - Lys - Gly - Gin - Thr - Gly - Glx - Leu - Gly - Ile - Ala - Gly - Phe - Lys - Gly - Glx - Gln - Gly - Pro - Lys [CII 245-270, reference compound]”?
Answer: Effectiveness as neonatal tolerogen, in words [2]: effective tolerogen; Development / incidence of arthritis, in words [3]: did not alter the incidence of disease; Antibodies to CII (antibodies to CII): 18.5 ± 8; Suppression of arthritis as neonatal tolerogen [4]: suppresses arthritis; Antibodies to CII [5]: 54 ± 25 units of activity
